# From patent US20250066417A9, “NEW PEPTIDE-BASED DIAGNOSTIC AND THERAPEUTIC AGENTS” (ENLITISA (SHANGHAI) PHARMACEUTICAL CO., LTD., priority 2021, published 2025)
# Values joined by “and” are separate entries in the source; they are usually repeats but may differ in a detail not shown here. Identical values can stand only once. Bridges are numbered along the chain shown (N, C = ends). Roman numbers before positions name the chains, in order. Where no end group is shown, it is not given here. [ ]: non-standard residue; d: D form. Dopa = N[C@@H](Cc1ccc(O)c(O)c1)C(=O)O; ACP = 6-aminocaproic acid (linker); Hyp = O=C(O)[C@@H]1C[C@@H](O)CN1
# Assays:
# [1] = Pharmacokinetic study of tritium-labelled peptide after rectal administration (total radioactivity by liquid scintillation); conditions: for Total radioactivity at 168 h (Cmax %): 168 h as % of Cmax
# Description: 1 mL of a pH 5.0 acetic acid solution was added to the product of Example 3 above with even mixing. 0.952 mL of the resultant solution was added to a 40 mL glass bottle.
# About 200 μL of 0.5% Evans Blue aqueous solution was added followed by even mixing. […] 30 Sprague-Dawley rats, half male and half female (Beijing Vital River Laboratory Animal Technology Co., Ltd.) were quarantined and acclimatised in polycarbonate cages for 5 to 7 days. The environmental conditions were controlled at room temperature of between 20° C. and 26° C., with a relative humidity of between 40% and 70%, with 12 hours of alternating lightness and darkness.
# The body weights required for randomization were obtained on Day 1 (before dosing). After randomization, rats were assigned to one of five groups (three animals per sex in each group).
# After weighing, animals were anesthetized by Intramuscular Injection of Zoletil-50. The animals were placed on their backs. Stools at the end of their rectums were gently squeezed out, and the skin around anus was disinfected with 75% alcohol.
# A closed catheter (No. 8, double lumen with guide wire) was Inserted Into the anus of the rats to a depth of about 3 cm, and then a gastric lavage needle was slowly Inserted to a depth of at least 3.5 cm. After lifting the perlanal skin, fixing the catheter and the gavage needle, about 1 mL of water was Injected Into the bladder cavity of the syringe guide catheter to make it expand. Then the gel comprising the title compound was given quickly through the needle.
# After administration, the catheter was ligated and fixed by wrapping tape around the root of the rats' tails. The catheter remained in the rectum for about 4 hours before removal.
# Blood, rectal contents and rectal mucosa samples were collected. All centrifuge tubes coated with EDTA-K2 were stored either in a refrigerator (at 2 to 8° C.) or In a cooler filled with Ice, and were protected from light prior to use. The collected blood was transferred Into the centrifuge tubes and stored in an Ice box protected from light after being mixed manually by reversing the tubes at least 5 times.
# Then, the tubes were centrifuged at 1800 g for 10 minutes at between 2 and 8° C., 2 hours after blood collection. After centrifugation, the collected plasma samples were transferred Into newly-labeled centrifuge tubes and aliquoted Into two sets, stored ay below −70° C.
# Plasma, rectal contents and rectal mucosa samples were analyzed using a liquid scintillation counter, and the radioactive concentration was calculated according to the actual sampling volume. Half-lives were also calculated using WinNonlin software. MS Excel was used for data statistical analysis, including mean, standard deviation (SD), and coefficient of variation (CV), etc.
# Total radioactivity unit (ng Eq./g)=DPM/g÷S.A. ×1000, S.A.=144,300 DPM/μg
# [2] = Fluorescence stability of the 0.05 mg/mL aqueous solution at room temperature; type: physicochemical; conditions: 0.05 mg/mL in distilled water, after one hour at room temperature
# Description: (§1) The title compound of Example 1 above was dissolved in distilled water to make a 0.05 mg/mL solution. The fluorescence absorption of the solution was scanned at 520 nm using a Hitachi F-7000 fluorescence spectrophotometer with an Interval of 20 nm. The optimal excitation wavelength was 450 nm and the maximum absorption wavelength was 521 nm.
# rat rectum [3] = assay: In vivo adhesive study: fluorescence imaging of rat rectum after rectal injection
# Description: as §1
# In an in vivo study, four rats were anesthetized by intraperitoneal injection of 5% chloral hydrate at a dose of 7 ml/kg. 1 mL of the solution of test compound was Injected Into the rectum using a 2 mL syringe. Swallowtail clamps were used to seal the anus to keep the liquid in rectum for about 2 hours. Rats were sacrificed at 2 hours, 4 hours, 8 hours and 24 hours after injection of test compound.
# (§2) In a separate ex vivo study, rats were anesthetized and their abdominal cavities opened. 8 cm of the rectum was removed and cut Into 2 pieces, with fat and contents stripped. 1 mL of normal saline was used to flush the rectal cavities, which were then placed Into a constant humidity plate. 1 mL of the solution of test compound was Injected Into the rectum and ligated at both ends. Samples were taken at 0 hours, 0.5 hours, 1 hour and 2 hours for fluorescence imaging. A MZX81 fluorescence stereomicroscope was used for imaging (Guangzhou Micro-Shot Technology Co., Ltd).
# (§3) The fluorescence Images are show in FIG. 1 (in vivo study) and FIG. 2 (ex vivo study).
# rat rectum [4] = assay: Ex vivo adhesive study: fluorescence imaging of excised rat rectum; conditions: rat rectum, 0, 0.5, 1 and 2 hours, FIG. 2
# Description: as §1, §2, §3
substance,measurement,setting,value
"I: AKPSY[Hyp]T[Dopa][Hyp]KKK-OH / II: AKPSY[Hyp]T[Dopa][Hyp]KK / III: AKPSY[Hyp]T[Dopa][Hyp]K / IV: AKPSY[Hyp]T[Dopa][Hyp]K (amide I:11-IV:C, I:12-II:C, II:11-III:C) [Example 3, ^3H-Labelled [(Ala-Lys-Pro-Ser-Tyr-Hyp-Thr-DOPA-Hyp-Lys)2-Lys]2-Lys]",radioactivity in rectal mucosa relative to rectal contents,[1]; 24 hours after administration,about 6.01 times
same,radioactivity in rectal mucosa relative to rectal contents,[1]; 72 hours after administration,~3.32 times
same,radioactivity in rectal mucosa relative to rectal contents,[1]; 168 hours,2.28 times
same,radioactivity concentration of rectal mucosa relative to plasma,[1]; one hour after rectal administration,1121 times
same,Total radioactivity,"[1]; plasma, 1 h, rectal 1.5 mg/100 μCi/kg, rats",47.8 ng Eq./g and 47.8 ± 12.2 ng Eq./g
same,Total radioactivity,"[1]; plasma, 6 h, rectal 1.5 mg/100 μCi/kg, rats",54.1 ng Eq./g and 54.1 ± 14.4 ng Eq./g
same,Total radioactivity,"[1]; plasma, 24 h, rectal 1.5 mg/100 μCi/kg, rats",18.6 ± 6.2 ng Eq./g
same,Total radioactivity,"[1]; plasma, 72 h, rectal 1.5 mg/100 μCi/kg, rats",15.2 ± 8.4 ng Eq./g
same,Total radioactivity,"[1]; plasma, 168 h, rectal 1.5 mg/100 μCi/kg, rats",13.3 ± 3.41 ng Eq./g
same,tolerability of the experimental dose,"[1]; rectal 1.5 mg/100 μCi/kg, rats",well tolerated
same,adverse reaction after administration,"[1]; rectal 1.5 mg/100 μCi/kg, rats, whole experiment",no obvious adverse reaction
same,time of highest total radioactivity after administration,[1]; rectal contents,1 h
same,Total radioactivity,"[1]; rectal contents, 1 h, rectal 1.5 mg/100 μCi/kg, rats",35322 ng Eq./g and 35322 ± 515 ng Eq./g
same,Total radioactivity,"[1]; rectal contents, 6 h, rectal 1.5 mg/100 μCi/kg, rats",21981 ± 153 ng Eq./g
same,Total radioactivity,"[1]; rectal contents, 24 h, rectal 1.5 mg/100 μCi/kg, rats",56.4 ± 54. ng Eq./g
same,average concentration at 24 hours as % of Cmax,[1]; rectal contents,~0.16%
same,Total radioactivity,"[1]; rectal contents, 72 h, rectal 1.5 mg/100 μCi/kg, rats",44.3 ± 27. ng Eq./g
same,Total radioactivity,"[1]; rectal contents, 168 h, rectal 1.5 mg/100 μCi/kg, rats",16.5 ng Eq./g and 16.5 ± 6.88 ng Eq./g
same,Total radioactivity at 168 h (Cmax %),[1]; rectal contents,0.05%
same,time of highest total radioactivity after administration,[1]; rectal mucosa,1 h
same,Total radioactivity,"[1]; rectal mucosa, 1 h, rectal 1.5 mg/100 μCi/kg, rats",53593 ng Eq./g and 53593 ± 472 ng Eq./g
same,radioactivity concentration of rectal mucosa relative to that at 1 h,"[1]; rectal mucosa, 6 h (11163 ng Eq./g)",about 20.83%
same,Total radioactivity,"[1]; rectal mucosa, 6 h, rectal 1.5 mg/100 μCi/kg, rats",11163 ng Eq./g and 11163 ± 702 ng Eq./g
same,Total radioactivity,"[1]; rectal mucosa, 24 h, rectal 1.5 mg/100 μCi/kg, rats",339 ng Eq./g and 339 ± 95. ng Eq./g
same,average concentration at 24 hours as % of Cmax,[1]; rectal mucosa,about 0.63%
same,Total radioactivity,"[1]; rectal mucosa, 72 h, rectal 1.5 mg/100 μCi/kg, rats",147 ng Eq./g and 147 ± 84. ng Eq./g
same,Total radioactivity,"[1]; rectal mucosa, 168 h, rectal 1.5 mg/100 μCi/kg, rats",37.6 ng Eq./g and 37.6 ± 10.2 ng Eq./g
same,Total radioactivity at 168 h (Cmax %),[1]; rectal mucosa,0.07%
same,gender differences in total radioactivity concentrations,"[1]; rectal mucosa, rectal contents and plasma, male vs female rats",no significant gender differences
[5-FITC-ACP-Ala-Lys-Pro-Ser-Tyr-Hyp-Thr-DOPA-Hyp-Lys)2-Lys]2-Lys ({5‑FITC-ACP}-AKPSY[Hyp]T[Dopa][Hyp]K; also: branched dendrimer: four peptide copies on a three-Lys core) [Example 1],fluorescence intensity (stability of test compound in solution),[2],did not change
same,adhesiveness of test compound to mucous,"rat rectum [3]; rat rectum, 2, 4, 8 and 24 hours after injection, FIG. 1",very stable
same,fluorescence intensity in the in vivo samples,"rat rectum [3]; rat rectum, even with constant fecal excretion",did not decrease significantly
same,adhesiveness of test compound to mucous,rat rectum [4],very stable
